US4450115A, “Amino-alcohol derivatives” (Kyowa Hakko Kogyo Co., Ltd., priority 1979, dated 1984)
Where a name gives a salt, the structure may show the parent alone. Read-outs that look alike come from different tables or passages of the source.

Legend:
in vivo = conditions: mouse, male dd-strain mice
Source text: The test compounds were orally administered to male dd-strain mice weighing 20-25 g.

[1] = test system: main artery of the dogs' organ; experiment: Effect on organ blood flow; assay type: in vivo, mongrel dogs; conditions: Canis lupus familiaris, iv, Table 5, femoral vein;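 further: percent change relative to blood flow before compound administration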
Protocol: (§1) In experiments (a), (b), (c) and (d), 3-4 male or female mongrel dogs (weight: 10-20 Kg) as one group were anesthetized by intravenous administration of 30 mg/kg of pentobarbital-Na. All compounds were dissolved in polyethylene glycol 400 and administered to the femoral vein.
(b) Effect on organ blood flow M (%)
In this test, 1 mg/kg of each compound shown in Tables 5 and 7 is administered to the dogs and an electromagnetic probe is attached to the main artery of the dogs' organ to measure the flow of blood.

α-adrenergic receptor = experiment: α blocking activity (inhibition of Norepinephrine-induced increase in systolic blood pressure); assay type: in vivo, mongrel dogs; conditions: Table 6, dogs, 3 μg/kg Norepinephrine i.v.
Protocol: as §1
(c-1) α blocking activity
In this test, 3 μg/kg of Norepinephrine is intravenously administered to the dogs to cause an increase in systolic blood pressure.

β1-adrenergic receptor = experiment: β1 blocking activity (inhibition of Isoproterenol-induced increase in heart rate); assay type: in vivo, mongrel dogs; conditions: Table 6, dogs, 0.5 μg/kg Isoproterenol i.v.
Protocol: as §1
(c-2) β1 blocking activity
In this test, 0.5 μg/kg of Isoproterenol is intravenously administered to the dogs to cause an increase in the heart rate.

β2-adrenergic receptor = experiment: β2 blocking activity (inhibition of Isoproterenol-induced decrease in diastolic blood pressure); assay type: in vivo, mongrel dogs; conditions: Table 6, dogs, 0.5 μg/kg Isoproterenol i.v.
Protocol: as §1
(c-3) β2 blocking activity
In this test, 0.5 μg/kg of Isoproterenol is intravenously administered to the dogs to cause a decrease in diastolic blood pressure.

[2] = read-out: Organ blood flow, Crotch (percentage change)
[3] = read-out: Organ blood flow, Malleus (percentage change)

Compound | LD50 (in vivo; Table 5, oral) [mg/kg] | change in vivo at 1 mg/kg [1, 2] [%] | change in vivo at 1 mg/kg [1, 3] [%] | α blocking activity, percentage inhibition (α-adrenergic receptor; test compound 0.1 mg/kg) | β1 blocking activity, percentage inhibition (β1-adrenergic receptor; test compound 0.1 mg/kg) | β2 blocking activity, percentage inhibition (β2-adrenergic receptor; test compound 0.1 mg/kg) | LD50 (in vivo; Table 6, oral) [mg/kg] | other results
Cc1cccc(OCC(O)CNCC2COc3ccccc3O2)c1 (stereo not drawn) [Compound 1, 1-(3-methylphenoxy)-3-(1,4-benzodioxane-2-methaneamino)-2-propanol] | 1000 to 2000 | 35 | 67 | – | – | – | – | –
CC(=O)Nc1ccc(OCC(O)CNCc2ccc3c(c2)OCCO3)cc1 (stereo not drawn) [Compound 23, 1-(4-acetamidophenoxy)-3-(1,4-benzodioxane-6-methaneamino)-2-propanol] | > 1000 | 90 | 67 | – | – | – | – | –
CC(CCc1ccccc1)NCC(O)COc1ccc(CC(=O)NN)cc1 (stereo not drawn) [Compound 18, 1-(4-hydrazinocarbonylmethylphenoxy)-3-(1-methyl-3-phenylpropylamino)-2-propanol] | – | – | – | +10% | -3% | +2% | > 1000 | –
COc1ccc(C(O)C(C)NCC2COc3ccccc3O2)cc1C (stereo not drawn) [Compound 8, 1-(3-methyl-4-methoxy)phenyl-2-(1,4-benzodioxane-2-methaneamino)propanol] | 450 | -67 | -4 | – | – | – | – | –
CC(CCc1ccccc1)NCC(O)c1ccc(O)c(C(N)=O)c1 (stereo not drawn) [Reference compound, 5-[1-hydroxy-2-(1-methyl-3-phenylpropyl)aminoethyl] salicylamide hydrochloride, reference compound] | – | – | – | -32% | -69% | -50% | – | –
CC(CCc1ccccc1)NCC(O)COc1ccc(CC(=O)O)cc1 (stereo not drawn) [Compound 17, 1-(4-carboxymethylphenoxy)-3-(1-methyl-3-phenylpropylamino)-2-propanol] | – | – | – | +15% | +13% | -13% | > 1000 | –
CC(CCc1ccccc1)NCC(O)COc1ccccc1C#N (stereo not drawn) [Compound 12, 1-(2-cyanophenoxy)-3-(1-methyl-3-phenylpropylamino)-2-propanol] | – | – | – | – | – | – | 125 to 250 | α blocking activity, percentage inhibition (α-adrenergic receptor; *dose of compound 1 mg/kg): -52%; β1 blocking activity, percentage inhibition (β1-adrenergic receptor; *dose of compound 1 mg/kg): -100%; β2 blocking activity, percentage inhibition (β2-adrenergic receptor; *dose of compound 1 mg/kg): -100%
CCOC(=O)Cc1cccc(OCC(O)CNC(C)CCc2ccccc2)c1 (stereo not drawn) [Compound 19, 1-(3-ethoxycarbonylmethylphenoxy)-3-(1-methyl-3-phenylpropylamino)-2-propanol] | – | – | – | +23% | -7% | +14% | > 1000 | –
CCOC(=O)Cc1ccc(C(O)CNC(C)CCc2ccccc2)cc1 (stereo not drawn) [Compound 21, 1-(4-ethoxycarbonylmethylphenyl)-2-(1-methyl-3-phenylpropylamino) ethanol] | – | – | – | +9% | -10% | -8% | > 1000 | –
CCOC(=O)Cc1ccc(OCC(O)CNCC2COc3ccccc3O2)cc1 (stereo not drawn) [Compound 5, 1-(4-ethoxycarbonylmethyl)phenoxy-3-(1,4-benzodioxane-2-methaneamino)-2-propanol] | > 1000 | -26 | -84 | – | – | – | – | –
COc1ccc(OCC(C)NCC(O)COc2ccc(NC(C)=O)cc2)cc1 (stereo not drawn) [Compound 33, 1-(4-acetamidophenoxy)-3-{1-methyl-2-(4-methoxyphenoxy)ethylamino}-2-propanol] | – | – | – | -21% | -52% | -13% | > 1000 | –
O=C1CCCc2c(OCC(O)CNCc3ccc4c(c3)OCCO4)cccc21 (stereo not drawn) [Compound 24, 1-{3,4-dihydro-1(2H)-naphthalenon-5-yl}oxy-3-(1,4-benzodioxane-6-methaneamino)-2-propanol] | > 1000 | 106 | 60 | – | – | – | – | –
CC(CCc1ccccc1)NCC(O)COc1ccc(CC(N)=O)cc1 (stereo not drawn) [Compound 11, 1-(4-carbamoylmethylphenoxy)-3-(1-methyl-3-phenylpropylamino)-2-propanol] | – | – | – | – | – | – | > 1000 | α blocking activity, percentage inhibition (α-adrenergic receptor; *dose of compound 1 mg/kg): -78%; β1 blocking activity, percentage inhibition (β1-adrenergic receptor; *dose of compound 1 mg/kg): -86%; β2 blocking activity, percentage inhibition (β2-adrenergic receptor; *dose of compound 1 mg/kg): -22%
N#Cc1ccccc1OCC(O)CNCC1COc2ccccc2O1 (stereo not drawn) [Compound 3, 1-(2-cyanophenoxy)-3-(1,4-benzodioxane-2-methaneamino)-2-propanol] | 420 | -21 | 18 | – | – | – | – | –
CC(CCc1ccccc1)NCC(O)COc1ccccc1C(N)=O (stereo not drawn) [Compound 16, 1-(2-carbamoylphenoxy)-3-(1-methyl-3-phenylpropylamino)-2-propanol] | – | – | – | -28% | -57% | -19% | 250 to 500 | –
Cc1cccc(OCC(O)CNC(C)CCc2ccccc2)c1C (stereo not drawn) [Compound 13, 1-(2,3-dimethylphenoxy)-3-(1-methyl-3-phenylpropylamino)-2-propanol] | – | – | – | -20% | -73% | -34% | 500 to 1000 | –
COc1ccc(OCC(C)NCC(O)COc2ccc(CC(N)=O)cc2)cc1 (stereo not drawn) [Compound 34, 1-(4-carbamoylmethylphenoxy)-3-{1-methyl-2-(4-methoxyphenoxy)ethylamino}-2-propanol] | – | – | – | -36% | -55% | -57% | > 1000 | –
CC(CCc1ccccc1)NCC(O)c1ccc(CC(N)=O)cc1 (stereo not drawn) [Compound 22, 1-(4-carbamoylmethylphenyl)-2-(1-methyl-3-phenylpropylamino) ethanol] | – | – | – | +19% | -8% | -11% | > 1000 | –
COC(=O)c1cc(C(O)CNCC2COc3ccccc3O2)ccc1O (stereo not drawn) [Compound 10, 1-(3-methoxycarbonyl-4-hydroxy)phenyl-2-(1,4-benzodioxane-2-methaneamino)ethanol] | – | -50 | -16 | – | – | – | – | –
Cc1c(C(O)CNCC2COc3ccccc3O2)oc2ccc(F)cc12 (stereo not drawn) [Compound 9, 1-(5-fluoro-3-methyl-2-benzofuranyl)-2-(1,4-benzodioxane-2-methaneamino)ethanol] | – | 42 | 35 | – | – | – | – | –
NC(=O)Cc1ccc(OCC(O)CNCc2ccc3c(c2)OCCO3)cc1 (stereo not drawn) [Compound 25, 1-(4-carbamoylmethylphenoxy)-3-(1,4-benzodioxane-6-methaneamino)-2-propano] | > 1000 | 90 | 22 | – | – | – | – | –
OC(CNCC1COc2ccccc2O1)COc1cccc2ccccc12 (stereo not drawn) [Compound 7, 1-(1-naphthyloxy)-3-(1,4-benzodioxane-2-methaneamino)-2-propanol] | > 1000 | -36 | 59 | – | – | – | – | –
Cc1cccc(OCC(O)CNCC2COc3ccccc3O2)c1C (stereo not drawn) [Compound 6, 1-(2,3-dimethylphenoxy)-3-(1,4-benzodioxane-2-methaneamino)-2-propanol] | > 1000 | 17 | -9 | – | – | – | – | –
CC(=O)Nc1ccc(OCC(O)CNCC2COc3ccccc3O2)cc1 (stereo not drawn) [Compound 2, 1-(4-acetamidophenoxy)-3-(1,4-benzodioxane-2-methaneamino)-2-propanol] | 500 to 1000 | 20 | 50 | – | – | – | – | –
